Broadly, the IC50 is the point on the concentration scale where inhibition reaches its midpoint.

This note sets out measurements from article PMC5487681, “Identification of Antifungal H^+-ATPase Inhibitors with Effect on Plasma Membrane Potential” (Antimicrobial Agents and Chemotherapy, 2017).

≈ marks a conversion by molar mass, not a printed value. Like-named read-outs stand apart in the source and are kept apart here.

One series concerns S. cerevisiae cells. Description: Intracellular ATP (iATP), S. cerevisiae. The series is classed as cell-based, Saccharomyces cerevisiae. To be noted: S. cerevisiae and C. albicans (Fig. 5A, B); compared to compounds 14, 19 and BM2. As for the experimental part: S. cerevisiae and C. albicans cells were grown and washed as described above for the membrane potential and integrity assay and resuspended in SG medium (0.7% yeast nitrogen base without amino acids [BD], 50 mM succinic acid adjusted to pH 7 with Trizma base) to OD600 of 0.2 and 0.1, respectively. One hundred microliters of an S. cerevisiae or C. albicans cell suspension and 1 μl compound in DMSO were incubated for 30 min. Twenty-five microliters of the suspension was then transferred to a black 96-well plate containing 25 μl BacTiter-Glo reagent (Promega, Madison, WI) and incubated for 15 min in the dark. The luminescence was read on SpectraMax X5 (Molecular Devices, Sunnyvale, CA) plate reader with a 10 s of shaking and a 0.5 s integration time. Standard curves at 10, 100, and 1,000 nM ATP were performed with every experiment.

For another series, the target named is T1, Na^+,K^+-ATPase (Sus scrofa, UniProt P05024).
T1 construct: from tissue; host or cells: porcine kidney (gift of Natalya Fedosova, Aarhus University)
Description: ATP hydrolysis assay, Na+,K+-ATPase. The series is classed as biochemical, porcine. To be noted: Table 1, read-out: IC50 Na^+,K^+-ATPase. Here is the method: (§1) Rabbit sarcoplasmic reticulum membranes containing sarcoplasmic endoplasmic reticulum Ca^2+-ATPase (SERCA) were kindly provided by Claus E. Olesen and Jesper V. Møller, Aarhus University, and prepared as described in reference. Porcine kidney Na^+,K^+-ATPase was kindly provided by Natalya Fedosova, Aarhus University, and prepared as described in reference.
(§2) The protein activity levels were determined by measuring the amount of free phosphate produced from the ATP hydrolysis reaction. The assay was performed as described in reference. Each well contained ATPase enzyme, 2 μl of inhibitor (usually in the range of 333 to 0.01 μM) dissolved in dimethyl sulfoxide (DMSO) (Duchefa Biochemie, Haarlem, The Netherlands), and an assay buffer dependent on the enzyme for a final volume of 60 μl. Possible compound precipitation in the assay buffer was monitored using a Nephelostar plate reader measuring turbidity, and the information was taken into account in the IC50 determination. Pma1 assay buffer consisted of 20 mM 3-(N-morpholino)propanesulfonic acid (MOPS)–NaOH, pH 6.5 or 7.0, 8 mM MgSO4, 50 mM KNO3 (a vacuolar ATPase inhibitor), 25 mM sodium azide (a mitochondrial ATPase inhibitor), and 250 μM sodium molybdate (an acid phosphatase inhibitor). SERCA buffer consisted of 9 mM MOPS-NaOH, pH 7, 2.7 mM MgCl2, 90 μM CaCl2, and 72 mM KCl. Na^+,K^+-ATPase buffer consisted of 30 mM MOPS-NaOH, pH 7, 40 mM NaCl, 4 mM MgCl2, and 20 mM KCl. The concentration of protein was adjusted to obtain a signal of the optical density at 860 nm (OD860) of between 0.5 and 1.0 in the untreated samples (for all Pma1 batches, ∼1 to 2 μg/well; for SERCA and Na^+,K^+-ATPase, ∼0.1 to 0.2 μg/well).

In series [1] the test system is Aspergillus fumigatus ATCC 13073. Description: microbe, parasite or virus in culture. To be noted: Aspergillus fumigatus, ATCC13073, 72 h, pH 7, read-out: MIC A. fumigatus. Here is the method: (§3) The following fungal isolates were used: Saccharomyces cerevisiae ATCC 9763, Candida albicans SC5314, Candida parapsilosis ATCC 22019, Candida tropicalis Ct016, Candida glabrata ATCC 90030, Aspergillus fumigatus ATCC 13073, and Aspergillus flavus ATCC MYA-1005. Frozen stocks of yeast isolates in glycerol (final concentration, 20%) were prepared by growing the cells to log phase in YPD medium at 30°C and 150 rpm. Frozen stocks of mold spores were prepared by harvesting spores from 7-day-old potato glucose agar plates in phosphate-buffered saline, 0.1% Tween 80 and aliquoting these spores in the presence of glycerol (final concentration, 20%). The cells were stored at −80°C. The cells or spores were thawed and diluted to a final concentration of 0.5 × 10^5 to 2.5 × 10^5 CFU/ml in sterile Milli-Q H2O. […] The plate was incubated for 20 to 24 h at 34°C (72 h for molds), and the OD490 was measured on a Victor X5 (PerkinElmer) plate reader. Mold growth assay plates were also visually inspected. The MIC was defined as the lowest concentration inhibiting the visual growth of the microorganism.

Another series has as its system Candida albicans SC5314. Description: microbe, parasite or virus in culture. To be noted: Candida albicans, SC5314, pH 7, read-out: MIC C. albicans. Here is the method: as §3
The subject of series [2] is Candida glabrata ATCC 90030. Description: microbe, parasite or virus in culture. The following applies: Nakaseomyces glabratus, ATCC90030, pH 7, read-out: MIC C. glabrata. As for the experimental part:
as §3

The test system of series [3] is Candida parapsilosis ATCC 22019. Put plainly: microbe, parasite or virus in culture. The following applies: Lodderomyces parapsilosis, ATCC22019, pH 7, read-out: MIC C. parapsilosis. Here is the method:
as §3

In the next series the test system is Candida tropicalis Ct016. Put plainly: microbe, parasite or virus in culture. The following applies: Candida tropicalis, CT016, pH 7, read-out: MIC C. tropicalis. As for the experimental part: as §3
In series [4] the target is T2, Ca^2+-ATPase (SERCA1a) (Oryctolagus cuniculus, UniProt P04191). Description: ATP hydrolysis assay, SERCA. The format is biochemical, rabbit. The following applies: Table 1; ATP hydrolysis at pH 7.4 (compounds marked b).
Another series deals with S. cerevisiae Pma1 (Saccharomyces cerevisiae, UniProt P05030). Description: ATP hydrolysis assay, S. cerevisiae plasma membranes containing Pma1. Details: containing the full-length cDNA of the S. cerevisiae plasma membrane H^+-ATPase isoform PMA1; made in house; host or cells: S. cerevisiae RS72 (PMA1 cDNA under PMA1 promoter); also wild-type S. cerevisiae ATCC 9763. The format is biochemical. As for the experimental part: Plasma membranes containing Pma1 were isolated from S. cerevisiae RS72 cells containing the full-length cDNA of the S. cerevisiae plasma membrane H^+-ATPase isoform PMA1 under the control of the PMA1 promoter, as described in reference.
A 100-ml overnight culture in YPD medium [10 g/liter yeast extract (BD, Sparks, MD), 20 g/liter Bacto peptone (BD), 20 g/liter D-(+)-glucose] was transferred to 1 liter YPD medium and grown at room temperature and 150 rpm for 18 h for wild-type S. cerevisiae (ATCC 9763) and 7 h for C. albicans. The cells were harvested and washed in Milli-Q H2O by centrifugation at 3,360 × g. The cells were glucose activated by the addition of 10% D-(+)-glucose for 10 min while shaking. The cells were then centrifuged at 3,360 × g for 3 min and frozen. Cells (60 to 80 g, wet weight) were then disrupted by bead beating (BioSpec, Bartlesville, OK) and processed as described in reference to prepare the plasma membranes. […] All batches were validated by ATPase hydrolysis activity, pH optimum, and orthovanadate sensitivity.
as §2, with “μg/well). […]” for “μg/well).”

In a further series the test system is S. cerevisiae. Put plainly: Medium acidification assay, S. cerevisiae. The series is classed as cell-based, Saccharomyces cerevisiae. The following applies: Saccharomyces cerevisiae, 0.2 h; 50% inhibition of medium acidification, 12 min, n = 2 to 3. Here is the method:
(§4) Frozen stocks of C. albicans and S. cerevisiae were transferred to YPD agar plates and incubated overnight at 34°C. On the next day, the cells were suspended and washed twice in 50 mM KCl, pH 6.7, after pelleting of the cells by centrifugation at 3,000 × g for 5 min. The cells were then starved overnight at 4°C in the KCl solution. […] The pH drop was then monitored by determination of the fluorescent signal with excitation at 485 nm and emission at 538 nm on a Fluoroskan Ascent plate reader (Thermo Fisher Scientific) for 12 min. The rate of medium acidification was calculated on the basis of the slope of the drop in fluorescence.

For the next series, the system named is C. albicans. Description: Medium acidification assay, C. albicans. The series is classed as cell-based, Candida albicans. The following applies: Candida albicans, 0.2 h; 50% inhibition of medium acidification, 12 min, n = 2 to 3; read-out: IC50 for acidification, C. albicans. Here is the method:
as §4

The target in series [5] is T2, Ca^2+-ATPase (SERCA1a). Description: ATP hydrolysis assay, SERCA. The series is classed as biochemical, rabbit. Here is the method: as §1, §2
Series [6] is described as follows: Compound precipitation in the fungal growth medium. The series is classed as physicochemical. The following applies: fungal growth medium (RPMI), footnotes of Table 1. Here is the method: as §3, with “microorganism. Standard errors were typically below 5%.” for “microorganism.”
In another series the test system is Candida spp. Description: Fungal growth inhibition, Candida spp. (text summary of Table 1). The following applies: 38 μM highest concentration tested for compounds 4 and 8, read-out: MIC for several of the Candida spp. tested. The series is classed as cell-based. As for the experimental part:
as §3, with “microorganism. Standard errors were typically below 5%.” for “microorganism.”

Setting [7] is: Table 1, ATP hydrolysis at pH 7, 2 to 3 experiments, read-out: IC50 Pma1.

T2 sequence (P04191 1-994 isoform P04191-2): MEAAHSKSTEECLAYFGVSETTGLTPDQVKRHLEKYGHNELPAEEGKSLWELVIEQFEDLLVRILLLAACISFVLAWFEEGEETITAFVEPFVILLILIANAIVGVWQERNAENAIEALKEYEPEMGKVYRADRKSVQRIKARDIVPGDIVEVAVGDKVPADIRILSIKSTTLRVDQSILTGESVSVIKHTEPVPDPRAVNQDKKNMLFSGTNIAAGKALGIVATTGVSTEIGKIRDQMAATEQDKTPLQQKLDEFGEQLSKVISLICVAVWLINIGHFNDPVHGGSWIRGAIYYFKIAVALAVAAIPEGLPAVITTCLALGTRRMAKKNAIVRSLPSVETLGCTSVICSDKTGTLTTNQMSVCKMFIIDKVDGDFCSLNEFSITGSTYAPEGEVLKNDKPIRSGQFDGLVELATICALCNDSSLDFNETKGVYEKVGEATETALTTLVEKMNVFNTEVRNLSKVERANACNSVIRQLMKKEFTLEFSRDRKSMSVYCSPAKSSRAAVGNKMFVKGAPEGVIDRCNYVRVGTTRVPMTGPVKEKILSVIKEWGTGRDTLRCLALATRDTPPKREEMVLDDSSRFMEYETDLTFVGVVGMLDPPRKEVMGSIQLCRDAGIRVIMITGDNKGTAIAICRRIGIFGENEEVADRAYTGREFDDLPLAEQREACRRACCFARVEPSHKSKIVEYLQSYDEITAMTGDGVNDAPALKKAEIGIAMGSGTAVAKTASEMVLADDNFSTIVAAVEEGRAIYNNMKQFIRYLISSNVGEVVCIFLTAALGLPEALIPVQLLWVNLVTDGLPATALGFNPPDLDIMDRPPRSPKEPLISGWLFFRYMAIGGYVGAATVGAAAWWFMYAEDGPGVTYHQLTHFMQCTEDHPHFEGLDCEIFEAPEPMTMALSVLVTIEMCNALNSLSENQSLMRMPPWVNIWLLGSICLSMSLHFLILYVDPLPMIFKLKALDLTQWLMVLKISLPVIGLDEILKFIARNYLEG
S. cerevisiae Pma1, sequence (P05030 whole entry, canonical isoform): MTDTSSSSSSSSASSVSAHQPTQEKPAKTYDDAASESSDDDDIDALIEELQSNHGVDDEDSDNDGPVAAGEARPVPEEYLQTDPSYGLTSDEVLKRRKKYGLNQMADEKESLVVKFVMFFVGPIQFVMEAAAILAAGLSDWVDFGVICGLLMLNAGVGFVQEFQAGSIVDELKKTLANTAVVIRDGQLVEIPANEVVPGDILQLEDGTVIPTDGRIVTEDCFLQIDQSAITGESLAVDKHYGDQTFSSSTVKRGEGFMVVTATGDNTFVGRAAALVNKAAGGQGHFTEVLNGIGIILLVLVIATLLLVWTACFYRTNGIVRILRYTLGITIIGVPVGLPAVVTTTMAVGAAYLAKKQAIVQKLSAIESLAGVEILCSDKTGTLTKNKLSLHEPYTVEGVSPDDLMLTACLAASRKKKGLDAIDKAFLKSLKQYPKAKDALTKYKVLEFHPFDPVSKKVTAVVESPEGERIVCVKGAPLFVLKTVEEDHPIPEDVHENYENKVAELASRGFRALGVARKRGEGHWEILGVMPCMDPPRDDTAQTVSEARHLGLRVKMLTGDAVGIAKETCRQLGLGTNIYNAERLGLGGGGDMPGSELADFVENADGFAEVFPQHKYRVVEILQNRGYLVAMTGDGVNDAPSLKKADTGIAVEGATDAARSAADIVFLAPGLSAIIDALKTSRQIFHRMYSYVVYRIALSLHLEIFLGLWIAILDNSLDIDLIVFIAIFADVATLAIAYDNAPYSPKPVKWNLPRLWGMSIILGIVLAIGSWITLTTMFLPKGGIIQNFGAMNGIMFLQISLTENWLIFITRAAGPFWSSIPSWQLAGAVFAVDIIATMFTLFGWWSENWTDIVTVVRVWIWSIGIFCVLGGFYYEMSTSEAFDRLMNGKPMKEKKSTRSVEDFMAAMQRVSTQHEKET

Take `CC[C@H]1/C=C/C=C/C[C@@H](C)[C@H](O)[C@@](C)(O)C(=O)[C@@H](C)[C@H](O)[C@@H](C)C(=O)[C@@H](C)[C@H](O)[C@@H](C)/C=C/C(=O)O[C@@H]2[C@H](C)[C@H](CC1)O[C@]1(CC[C@H](C)[C@H](C[C@@H](C)O)O1)[C@H]2C` [oligomycin, reference compound]: the “Effects on iATP levels, in words” value with S. cerevisiae cells is “minimal effects”.
As to `O=C1C=CC(=O)N1c1cccc2ccccc12` [Compound 10], the IC50 on Na^+,K^+-ATPase (ATP hydrolysis at pH 7.4 (compounds marked b)) was greater than 105 µM; against Ca^2+-ATPase (SERCA1a) [4], 3.4 ± 1.8 µM; at S. cerevisiae Pma1 (IC50 Pma1, Table 1, ATP hydrolysis at pH 6.5 (compounds marked b), 2 to 3 experiments), 9.4 ± 1.7 µM; at S. cerevisiae Pma1 (IC50 for Pma1, ATP hydrolysis, S. cerevisiae Pma1), less than 25 µM. Also, the MIC was 99 µM (≈ 22.1 µg/mL) in series [1]; 88 µM (≈ 19.6 µg/mL) in the series on Candida albicans SC5314; 12 µM (≈ 2.68 µg/mL) in series [2]; 116 µM (≈ 25.9 µg/mL) in [3]; 15 µM (≈ 3.35 µg/mL) with Candida tropicalis Ct016.
As for `C[C@@H]1[C@H](O)[C@@H](C)/C=C/C=C/C=C/C=C/C=C/C=C/C=C/[C@H](O[C@@H]2O[C@H](C)[C@@H](O)[C@H](N)[C@@H]2O)C[C@@H]2O[C@](O)(C[C@@H](O)C[C@@H](O)[C@H](O)CC[C@@H](O)C[C@@H](O)CC(=O)O[C@H]1C)C[C@H](O)[C@H]2C(=O)O` [AMB, amphotericin B, reference compound], the IC50 with S. cerevisiae and in the series with C. albicans was greater than 75 µM each time.
For the compound `O=C1[C@@H]2C(c3ccc(Br)cc3)=NN(c3ccccc3)[C@@H]2C(=O)N1c1ccccc1F` [Compound 2], the IC50 at Na^+,K^+-ATPase (ATP hydrolysis at pH 7) was greater than 105 µM; against Ca^2+-ATPase (SERCA1a) [5] it was greater than 105 µM; at S. cerevisiae Pma1 (setting [7]), 2.1 ± 1.3 µM. The MIC in the series with Candida albicans SC5314 and with Candida spp. was greater than 150 µM throughout. The “Compound precipitation observed in the growth medium at concentrations down to” value in series [6] is “d Compound precipitation was observed in the growth medium at concentrations down to 48 μM”.
As for `N#CC(C#N)=NNc1cccc(Cl)c1` [CCCP, carbonyl cyanide m-chlorophenylhydrazone, reference compound], in the series with S. cerevisiae cells, the “Effects on iATP levels, in words” value is on record as “minimal effects”.
`CN1CCc2c(sc3c2C(=O)NC(c2ccc(-c4cccc(Cl)c4)o2)N3)C1` (stereo not drawn) [Compound 13]: the IC50 at Na^+,K^+-ATPase (ATP hydrolysis at pH 7) was 30.6 ± 11.1 µM; on Ca^2+-ATPase (SERCA1a) [5], 22 ± 3 µM; at S. cerevisiae Pma1 (ATP hydrolysis, S. cerevisiae Pma1, read-out: IC50 for Pma1) it was less than 25 µM; on S. cerevisiae Pma1 (setting [7]) it was 22.6 ± 12.4 µM. For the same compound, the MIC in the series with Candida albicans SC5314 is 23 µM (≈ 9.2 µg/mL); in [2], 31 µM (≈ 12.4 µg/mL); in series [3], 47 µM (≈ 18.8 µg/mL); with Candida tropicalis Ct016 it was greater than 150 µM.
